From patent US10150728B2, “Alkylene derivatives” (Shionogi & Co., Ltd., priority 2013, dated 2018) come the findings set out here.

In the assay the target is recombinant human ACC2 (Homo sapiens (Human), UniProt O00763). The assay is described as follows: Measurement of inhibitory activity on human ACC2 (MALDI-TOF MS, acetyl CoA to malonyl CoA conversion). The class given is biochemical. The settings on record: Tables 155-159. The gist of the method:
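His-tagged human ACC2 (residues 27–2458) from baculovirus-infected Sf-9 cells was preincubated 1 h in pH 7.4 HEPES-KOH buffer with MgCl2, 6-10 mM potassium citrate, glutathione and BSA. Substrate solution held 1 mM ATP, 0.8 mM acetyl CoA and 25-50 mM bicarbonate. After 1–3 h at room temperature, malonyl CoA/(malonyl+acetyl CoA) was read by negative-mode MALDI-TOF MS; citrate, bicarbonate and time varied by enzyme lot.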

recombinant human ACC2, sequence (O00763 27-2458): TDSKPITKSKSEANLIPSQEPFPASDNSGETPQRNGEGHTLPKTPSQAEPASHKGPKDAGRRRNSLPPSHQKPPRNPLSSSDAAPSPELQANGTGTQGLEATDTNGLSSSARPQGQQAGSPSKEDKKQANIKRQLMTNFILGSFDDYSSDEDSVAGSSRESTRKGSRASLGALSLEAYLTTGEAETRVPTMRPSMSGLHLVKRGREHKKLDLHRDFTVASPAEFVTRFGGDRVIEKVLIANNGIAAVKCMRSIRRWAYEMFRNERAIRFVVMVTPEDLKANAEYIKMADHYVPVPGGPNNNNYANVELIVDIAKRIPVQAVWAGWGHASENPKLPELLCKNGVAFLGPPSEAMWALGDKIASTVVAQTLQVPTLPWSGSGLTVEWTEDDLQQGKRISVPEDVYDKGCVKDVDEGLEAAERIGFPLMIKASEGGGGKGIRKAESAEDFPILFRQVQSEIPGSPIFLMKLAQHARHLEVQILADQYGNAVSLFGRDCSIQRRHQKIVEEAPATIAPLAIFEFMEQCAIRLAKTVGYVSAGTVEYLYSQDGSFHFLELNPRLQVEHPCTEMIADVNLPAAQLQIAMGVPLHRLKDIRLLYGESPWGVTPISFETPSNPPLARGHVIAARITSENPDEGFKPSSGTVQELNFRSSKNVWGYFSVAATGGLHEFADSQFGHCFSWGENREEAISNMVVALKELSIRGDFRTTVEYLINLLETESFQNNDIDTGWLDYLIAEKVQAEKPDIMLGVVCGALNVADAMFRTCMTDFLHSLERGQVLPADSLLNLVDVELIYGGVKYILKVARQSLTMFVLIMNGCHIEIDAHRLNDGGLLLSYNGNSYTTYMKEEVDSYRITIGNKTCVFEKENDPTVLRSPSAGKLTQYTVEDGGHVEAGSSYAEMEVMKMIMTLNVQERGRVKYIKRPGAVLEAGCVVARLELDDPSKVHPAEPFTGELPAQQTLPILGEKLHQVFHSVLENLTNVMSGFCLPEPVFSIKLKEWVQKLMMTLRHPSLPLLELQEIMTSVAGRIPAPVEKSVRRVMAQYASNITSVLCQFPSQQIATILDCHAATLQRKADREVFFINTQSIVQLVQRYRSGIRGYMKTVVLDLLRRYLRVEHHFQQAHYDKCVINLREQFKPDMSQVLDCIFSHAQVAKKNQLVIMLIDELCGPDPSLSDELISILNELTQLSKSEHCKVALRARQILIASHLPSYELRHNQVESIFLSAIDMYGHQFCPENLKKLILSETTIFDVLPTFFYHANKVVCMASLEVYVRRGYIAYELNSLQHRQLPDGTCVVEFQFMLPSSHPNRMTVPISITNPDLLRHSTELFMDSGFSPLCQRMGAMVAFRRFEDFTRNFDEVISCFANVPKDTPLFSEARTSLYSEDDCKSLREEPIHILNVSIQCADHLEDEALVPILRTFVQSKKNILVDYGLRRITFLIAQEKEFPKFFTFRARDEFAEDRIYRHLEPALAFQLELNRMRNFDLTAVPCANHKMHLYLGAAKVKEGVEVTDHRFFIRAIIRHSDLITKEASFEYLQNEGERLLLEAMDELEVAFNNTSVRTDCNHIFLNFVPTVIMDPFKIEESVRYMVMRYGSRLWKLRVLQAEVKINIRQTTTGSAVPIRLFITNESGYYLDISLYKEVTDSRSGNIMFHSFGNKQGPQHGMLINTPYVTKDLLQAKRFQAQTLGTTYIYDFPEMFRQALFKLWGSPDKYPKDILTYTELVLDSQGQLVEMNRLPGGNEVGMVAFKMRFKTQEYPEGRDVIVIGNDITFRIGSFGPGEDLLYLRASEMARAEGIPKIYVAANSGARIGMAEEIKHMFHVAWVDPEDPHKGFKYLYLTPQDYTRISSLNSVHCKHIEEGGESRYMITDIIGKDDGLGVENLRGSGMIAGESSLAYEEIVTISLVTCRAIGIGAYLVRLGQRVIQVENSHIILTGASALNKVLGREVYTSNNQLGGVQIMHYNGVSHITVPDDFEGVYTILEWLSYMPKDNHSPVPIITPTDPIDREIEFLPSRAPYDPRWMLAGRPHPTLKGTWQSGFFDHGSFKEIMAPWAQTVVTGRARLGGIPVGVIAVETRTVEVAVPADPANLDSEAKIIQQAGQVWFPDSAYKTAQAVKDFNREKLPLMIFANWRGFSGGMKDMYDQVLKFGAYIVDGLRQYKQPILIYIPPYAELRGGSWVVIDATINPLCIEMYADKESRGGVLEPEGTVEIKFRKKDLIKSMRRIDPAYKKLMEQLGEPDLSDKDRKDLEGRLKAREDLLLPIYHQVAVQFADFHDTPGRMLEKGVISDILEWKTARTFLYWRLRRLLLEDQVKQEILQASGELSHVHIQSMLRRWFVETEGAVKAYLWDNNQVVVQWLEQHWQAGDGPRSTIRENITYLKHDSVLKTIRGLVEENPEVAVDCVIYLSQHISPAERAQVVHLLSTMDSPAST

Consider `CC(=O)N[C@@H](C)CO[C@H]1CC[C@H](Oc2ncc3nc(OCC4CC4(F)F)sc3c2F)CC1` (some centres unmarked) [Compound I-253], for which the IC50 (usually the concentration that inhibits the measured activity by half) was 11 nM.

In the case of `CC(=O)N[C@@H](C)CO[C@H]1C[C@H](COc2ccc3nc(N4CC(F)(F)C(F)(F)C4)sc3n2)C1` [Compound I-254], the IC50 stood at 20 nM.

Regarding `CC(=O)N[C@@H](C)CO[C@H]1C[C@H](COc2ccc3nc(N4CCC4)sc3n2)C1` [Compound I-255], the IC50 turned out to be 24 nM.

As for `CC(=O)N[C@@H](C)CO[C@H]1C[C@H](COc2ccc3nc(N4CC(F)C4)sc3n2)C1` [Compound I-256], the IC50 was found to be 39 nM.

For the molecule `CC(=O)N[C@@H](C)CO[C@H]1C[C@H](COc2ccc3nc(N4CCCC4)sc3n2)C1` [Compound I-257], the IC50 was determined as 14 nM.

Regarding `CC(=O)N[C@@H](C)CO[C@H]1C[C@H](COc2cc(C)c3nc(OC4CC4)sc3n2)C1` [Compound I-258], the IC50 was 99 nM.

Consider `CC(=O)N[C@@H](C)CO[C@H]1CC[C@H](Oc2cc3sc(O[C@H]4CCOC4)nc3cn2)CC1` [Compound I-259], for which the IC50 was determined as 86 nM.

For `CC(=O)N[C@@H](C)CO[C@H]1CC[C@H](Oc2cc3sc(O[C@@H]4CCOC4)nc3cn2)CC1` [Compound I-260], the IC50 was found to be 102 nM.

Regarding `CC(=O)N[C@@H](C)CO[C@H]1CC[C@H](Oc2cc3sc(OCC4(C)CC4)nc3cn2)CC1` [Compound I-261], the IC50 was determined as 17 nM.

Regarding `CC(=O)N[C@@H](C)CO[C@H]1CC[C@H](Oc2cc3sc(OC[C@@H](C)F)nc3cn2)CC1` [Compound I-262], the IC50 is 53 nM.

Consider `CC(=O)N[C@@H](C)CO[C@H]1CC[C@H](Oc2cc3sc(OCC(C)(C)C#N)nc3cn2)CC1` [Compound I-263], for which the IC50 is 862 nM.

As to `CC(=O)N[C@@H](C)CO[C@H]1CC[C@H](Oc2cc3sc(OCC4(C#N)CC4)nc3cn2)CC1` [Compound I-264], the IC50 is 372 nM.

Regarding `CC(=O)N[C@@H](C)CO[C@H]1C[C@H](COc2ccc3nc(N4CCCCC4)sc3n2)C1` [Compound I-265], the concentration for half-maximal inhibition (IC50) is 16 nM.

As to `CC(=O)N[C@@H](C)CO[C@H]1C[C@H](COc2nc3sc(N4CCC4)nc3cc2F)C1` [Compound I-266], the IC50 was 36 nM.

For `CC(=O)N[C@@H](C)CO[C@H]1C[C@H](COc2nc3sc(N4CC(F)C4)nc3cc2F)C1` [Compound I-267], the IC50 worked out at 58 nM.

Take `CC(=O)N[C@@H](C)CO[C@H]1C[C@H](COc2nc3sc(N4CC(F)(F)C4)nc3cc2F)C1` [Compound I-268]: the IC50 worked out at 42 nM.

In the case of `CC(=O)N[C@@H](C)CO[C@H]1C[C@H](COc2ccc3nc(N4CCC4)sc3c2F)C1` [Compound I-269], the IC50 stood at 125 nM.

In the case of `CC(=O)N[C@@H](C)CO[C@H]1C[C@H](COc2ccc3nc(N4CCCC4)sc3c2F)C1` [Compound I-270], the IC50 is 116 nM.

Take `CC(=O)N[C@@H](C)CO[C@H]1CC[C@H](Oc2cc3sc(O[C@H]4C[C@@H](C#N)C4)nc3cn2)CC1` [Compound I-271]: the IC50 worked out at 83 nM.

For `C[C@@H](CO[C@H]1CC[C@H](Oc2ncc3nc(OC4CC4)sc3c2F)CC1)NC(=O)CO` [Compound I-272], the IC50 turned out to be 123 nM.

On to `CC(=O)N[C@@H](C)CO[C@H]1CC[C@H](Oc2ncc3nc(OC4COC4)sc3c2F)CC1` [Compound I-273], for which the IC50 worked out at 35 nM.

`CC(=O)N[C@@H](C)CO[C@H]1CC[C@H](Oc2ncc3nc(OCC4(F)COC4)sc3c2F)CC1` [Compound I-274]: the IC50 came out at 90 nM.

In the case of `CC(=O)N[C@@H](C)CO[C@H]1CC[C@H](Oc2ncc3nc(OCC4(C#N)CC4)sc3c2F)CC1` [Compound I-275], the IC50 came to 156 nM.

Regarding `CC(=O)N[C@@H](C)CO[C@H]1CC[C@H](Oc2ncc3nc(O[C@H]4CCOC4)sc3c2F)CC1` [Compound I-276], the IC50 is 13 nM.

As for `CC(=O)N[C@@H](C)CO[C@H]1CC[C@H](Oc2ncc3nc(O[C@@H]4CCOC4)sc3c2F)CC1` [Compound I-277], the IC50 came out at 32 nM.

With `CC(=O)N[C@@H](C)CO[C@H]1CC[C@H](Oc2cc(C)c3nc(N4CC(F)(F)C4)sc3n2)CC1` [Compound I-278], the IC50 came out at 87 nM.
